Measured values: patent US8071589B2, “Dihydrobenzoindazoles” (N. V. Organon, priority 2009, dated 2011)

target: T1, human FSH receptor (Homo sapiens, UniProt P23945); experiment: Agonistic activity at the human FSH receptor expressed in CHO cells (CRE-luciferase reporter)
T1 sequence (P23945 18-695): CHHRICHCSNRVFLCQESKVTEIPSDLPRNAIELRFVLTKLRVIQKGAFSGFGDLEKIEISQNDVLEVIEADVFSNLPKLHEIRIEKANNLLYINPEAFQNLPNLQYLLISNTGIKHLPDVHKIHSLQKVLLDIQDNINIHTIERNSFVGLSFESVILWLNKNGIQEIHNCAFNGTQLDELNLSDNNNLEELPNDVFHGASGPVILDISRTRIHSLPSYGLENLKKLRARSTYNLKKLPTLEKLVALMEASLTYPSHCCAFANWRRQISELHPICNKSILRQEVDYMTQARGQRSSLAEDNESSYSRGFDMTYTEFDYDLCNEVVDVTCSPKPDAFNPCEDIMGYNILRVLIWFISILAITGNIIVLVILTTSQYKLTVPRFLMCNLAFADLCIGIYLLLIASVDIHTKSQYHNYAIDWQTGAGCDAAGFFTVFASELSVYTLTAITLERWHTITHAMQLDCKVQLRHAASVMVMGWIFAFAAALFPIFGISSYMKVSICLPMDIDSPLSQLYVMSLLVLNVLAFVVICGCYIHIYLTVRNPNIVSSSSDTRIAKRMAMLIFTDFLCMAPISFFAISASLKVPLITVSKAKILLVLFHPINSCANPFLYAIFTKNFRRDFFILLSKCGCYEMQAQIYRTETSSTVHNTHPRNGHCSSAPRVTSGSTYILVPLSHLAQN
Text: The term EC50 means the concentration of the test compound that elicits half-maximal (50%) stimulation compared to the compound's maximally attainable effect. pEC50 is the negative log of EC50. The values can be determined e.g. in a cell line transfected with a FSH receptor gene and cotransfected with a cAMP responsive element/promoter directing the expression of a reporter gene. For the determination a software program such as MathIQ (version 2.0, ID Business Solutions Limited) can be used.
Agonistic activity of the compounds at the human FSH receptor was determined in Chinese Hamster Ovary (CHO) cells stably transfected with the human FSH receptor and cotransfected with a cAMP responsive element (CRE)/promotor directing the expression of a firefly luciferase reporter gene. […] Cells (7,500 cells/well of a 384 well plate) were incubated in Dulbecco' minimal essential F12 modified medium (Invitrogen), supplemented with 1 μg/ml bovine insulin, 5 μg/ml human apo-transferrin, 80 U/ml penicillin G and 80 μg/ml streptomycin with the test compounds (concentration between 0.0316 nM and 10.0 μM) in duplicate in a humidified atmosphere (95%) at 5-7% CO2 and 37° C. The final concentration of DMSO was 1%. After 4 hours of incubation, plates were allowed to adjust to room temperature for 1 hour. Then, Luclite (PerkinElmer) solution was added to the wells and cells were allowed to lyse for at least 1 hour at room temperature. Subsequently, luciferase activity was measured in a luminescence counter. The signal is expressed as counts per second (cps). The EC50 (concentration of the test compound that elicits half-maximal (50%) luciferase stimulation compared to the compound's maximally attainable effect) and efficacy values (maximal effect of the test compound as percentage of the maximal effect of recombinant human FSH) of the compounds were determined using the software program MathIQ (version 2.0, ID Business Solutions Limited).

SMILES | EC50 [nM]
COc1cc2c(cc1-c1cccnc1)-c1c(c(C(=O)N(C)C(C)(C)C)nn1-c1ccccc1Cl)CC2 [Example 11gb, N-tert-butyl-1-(2-chlorophenyl)-7-methoxy-N-methyl-8-(pyridin-3-yl)-4,5-dihydro-1H-benzo[g]indazole-3-carboxamide] | < 100
COc1cc2c(cc1OC(C)C)-c1c(c(C(=O)N(C)C(C)(C)C)nn1-c1ccsc1)CC2 [Example 2h, N-tert-butyl-8-isopropoxy-7-methoxy-N-methyl-1-(thiophen-3-yl)-4,5-dihydro-1H-benzo[g]indazole-3-carboxamide] | < 100
COc1cc2c(cc1OC(C)C)-c1c(c(C(=O)N3CCCN(C(=O)C4CCC4)CC3)nn1-c1ccc(F)cc1)CC2 [Example 3d, (4-(cyclobutanecarbonyl)-1,4-diazepan-1-yl)(1-(4-fluorophenyl)-8-isopropoxy-7-methoxy-4,5-dihydro-1H-benzo[g]indazol-3-yl)methanone] | < 100
COc1cc2c(cc1OC(C)C)-c1c(c(C(=O)N3CCCN(C(=O)C4CCC4)CC3)nn1-c1ccsc1)CC2 [Example 2g, (4-(cyclobutanecarbonyl)-1,4-diazepan-1-yl)(8-isopropoxy-7-methoxy-1-(thiophen-3-yl)-4,5-dihydro-1H-benzo[g]indazol-3-yl)methanone] | < 100
COc1cc2c(cc1OC(C)C)-c1c(c(C(=O)N(C)C(C)(C)C)nn1-c1cccs1)CC2 [Example 5b, N-tert-butyl-8-isopropoxy-7-methoxy-N-methyl-1-(thiophen-2-yl)-4,5-dihydro-1H-benzo[g]indazole-3-carboxamide] | < 100
COc1cc2c(cc1OC(C)C)-c1c(c(C(=O)N3CCCN(C(C)=O)CC3)nn1-c1ccc(F)cc1)CC2 [Example 3c, 1-(4-(1-(4-fluorophenyl)-8-isopropoxy-7-methoxy-4,5-dihydro-1H-benzo[g]indazole-3-carbonyl)-1,4-diazepan-1-yl)ethanone] | < 100
